Experimental data: patent publication US8729078B2, “Inhibitors of bruton's tyrosine kinase” (Hoffmann-La Roche Inc., priority 2011, dated 2014)

molecular target: Btk (Homo sapiens (Human), UniProt Q06187); assay: Bruton's Tyrosine Kinase (Btk) inhibition assay (FRET BTK); type: biochemical
Sequence (Q06187 whole entry): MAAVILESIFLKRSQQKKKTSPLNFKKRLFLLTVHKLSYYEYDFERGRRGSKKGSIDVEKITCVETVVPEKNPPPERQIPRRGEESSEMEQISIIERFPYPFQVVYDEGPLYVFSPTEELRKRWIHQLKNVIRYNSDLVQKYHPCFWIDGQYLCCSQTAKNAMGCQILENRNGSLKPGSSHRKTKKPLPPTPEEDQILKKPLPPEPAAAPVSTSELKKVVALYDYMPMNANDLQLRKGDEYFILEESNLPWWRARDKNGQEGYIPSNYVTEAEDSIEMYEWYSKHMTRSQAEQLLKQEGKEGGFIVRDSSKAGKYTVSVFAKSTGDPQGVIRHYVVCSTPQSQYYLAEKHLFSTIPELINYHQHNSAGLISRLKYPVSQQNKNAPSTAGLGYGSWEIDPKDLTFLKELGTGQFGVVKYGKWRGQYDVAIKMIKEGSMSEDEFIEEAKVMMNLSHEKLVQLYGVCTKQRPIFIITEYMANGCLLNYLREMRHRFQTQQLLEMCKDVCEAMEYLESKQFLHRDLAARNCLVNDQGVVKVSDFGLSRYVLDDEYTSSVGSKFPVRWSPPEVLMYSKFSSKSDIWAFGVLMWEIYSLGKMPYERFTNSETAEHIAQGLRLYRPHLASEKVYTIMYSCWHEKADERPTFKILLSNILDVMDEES

Row | SMILES | IC50 [nM]
1 | Cn1cc(-c2cccc(-n3ccc4cc(C5CC5)cc(F)c4c3=O)c2CO)cc1C(N)=O [Compound I-13, 4-[3-(6-Cyclopropyl-8-fluoro-1-oxo-1H-isoquinolin-2-yl)-2-hydroxymethyl-phenyl]-1-methyl-1H-pyrrole-2-carboxylic acid amide] | 39.4
2 | CC(C)(C)c1cc(F)c2c(=O)n(-c3cccc(-n4cc(C(N)=O)c(Nc5ccc(Cl)cn5)n4)c3CO)ncc2c1 [Compound I-23, 1-[3-(6-tert-Butyl-8-fluoro-1-oxo-1H-phthalazin-2-yl)-2-hydroxymethyl-phenyl]-3-(5-chloro-pyridin-2-ylamino)-1H-pyrazole-4-carboxylic acid amide] | 0.29
3 | CC(C)(CN1CCC1)Oc1ccc(Nc2nn(-c3cccc(-n4ncc5cc(C(C)(C)C)cc(F)c5c4=O)c3CO)cc2C(N)=O)nc1 [Compound I-24, 3-[5-(2-Azetidin-1-yl-1,1-dimethyl-ethoxy)-pyridin-2-ylamino]-1-[3-(6-tert-butyl-8-fluoro-1-oxo-1H-phthalazin-2-yl)-2-hydroxymethyl-phenyl]-1H-pyrazole-4-carboxylic acid amide] | 0.18
4 | CN1CCn2nc(Nc3nn(-c4cccc(-n5ncc6cc(C(C)(C)C)cc(F)c6c5=O)c4CO)cc3C(N)=O)cc2C1 [Compound I-25, 1-[3-(6-tert-Butyl-8-fluoro-1-oxo-1H-phthalazin-2-yl)-2-hydroxymethyl-phenyl]-3-(5-methyl-4,5,6,7-tetrahydro-pyrazolo[1,5-a]pyrazin-2-ylamino)-1H-pyrazole-4-carboxylic acid amide] | 0.09
5 | CC(C)(C)c1cc(F)c2c(=O)n(-c3cccc(-n4cc(C(N)=O)c(Nc5ccccn5)n4)c3CO)ncc2c1 [Compound I-26, 1-[3-(6-tert-Butyl-8-fluoro-1-oxo-1H-phthalazin-2-yl)-2-hydroxymethyl-phenyl]-3-(pyridin-2-ylamino)-1H-pyrazole-4-carboxylic acid amide] | 0.36
6 | Cn1ccc(Nc2nn(-c3cccc(-n4ncc5cc(C(C)(C)C)cc(F)c5c4=O)c3CO)cc2C(N)=O)n1 [Compound I-28, 1-[3-(6-tert-Butyl-8-fluoro-1-oxo-1H-phthalazin-2-yl)-2-hydroxymethyl-phenyl]-3-(1-methyl-1H-pyrazol-3-ylamino)-1H-pyrazole-4-carboxylic acid amide] | 0.22
7 | CC(C)(C)c1cc(F)c2c(=O)n(-c3cccc(-n4cc(C(N)=O)c(Nc5cnccn5)n4)c3CO)ncc2c1 [Compound I-29, 1-[3-(6-tert-Butyl-8-fluoro-1-oxo-1H-phthalazin-2-yl)-2-hydroxymethyl-phenyl]-3-(pyrazin-2-ylamino)-1H-pyrazole-4-carboxylic acid amide] | 0.43
8 | CC(C)(C)c1cc(F)c2c(=O)n(-c3cccc(-n4cc(C(N)=O)c(Nc5ccc(F)cn5)n4)c3CO)ncc2c1 [Compound I-30, 1-[3-(6-tert-Butyl-8-fluoro-1-oxo-1H-phthalazin-2-yl)-2-hydroxymethyl-phenyl]-3-(5-fluoro-pyridin-2-ylamino)-1H-pyrazole-4-carboxylic acid amide] | 0.24
9 | Cc1cc(Nc2nn(-c3cccc(-n4ncc5cc(C(C)(C)C)cc(F)c5c4=O)c3CO)cc2C(N)=O)nn1C [Compound I-31, 1-[3-(6-tert-Butyl-8-fluoro-1-oxo-1H-phthalazin-2-yl)-2-hydroxymethyl-phenyl]-3-(1,5-dimethyl-1H-pyrazol-3-ylamino)-1H-pyrazole-4-carboxylic acid amide] | 0.29
10 | CC(C)(C)c1cc(F)c2c(=O)n(-c3cccc(-n4cc(C(N)=O)c(Nc5ccc(C(F)(F)F)cn5)n4)c3CO)ncc2c1 [Compound I-32, 1-[3-(6-tert-Butyl-8-fluoro-1-oxo-1H-phthalazin-2-yl)-2-hydroxymethyl-phenyl]-3-(5-trifluoromethyl-pyridin-2-ylamino)-1H-pyrazole-4-carboxylic acid amide] | 0.57
11 | Cc1ccc(Nc2nn(-c3cccc(-n4ncc5cc(C(C)(C)C)cc(F)c5c4=O)c3CO)cc2C(N)=O)nc1 [Compound I-33, 1-[3-(6-tert-Butyl-8-fluoro-1-oxo-1H-phthalazin-2-yl)-2-hydroxymethyl-phenyl]-3-(5-methyl-pyridin-2-ylamino)-1H-pyrazole-4-carboxylic acid amide] | 0.24
12 | Cc1cc(Nc2nn(-c3cccc(-n4ncc5cc(C(C)(C)C)ccc5c4=O)c3CO)cc2C(N)=O)nn1C [Compound I-34, 1-[3-(6-tert-Butyl-1-oxo-1H-phthalazin-2-yl)-2-hydroxymethyl-phenyl]-3-(1,5-dimethyl-1H-pyrazol-3-ylamino)-1H-pyrazole-4-carboxylic acid amide] | 0.51
13 | CC(C)(C)c1ccc2c(=O)n(-c3cccc(-n4cc(C(N)=O)c(Nc5cnccn5)n4)c3CO)ncc2c1 [Compound I-36, 1-[3-(6-tert-Butyl-1-oxo-1H-phthalazin-2-yl)-2-hydroxymethyl-phenyl]-3-(pyrazin-2-ylamino)-1H-pyrazole-4-carboxylic acid amide] | 0.83
14 | Cc1ccc(Nc2nn(-c3cccc(-n4ncc5cc(C(C)(C)C)ccc5c4=O)c3CO)cc2C(N)=O)nc1 [Compound I-37, 1-[3-(6-tert-Butyl-1-oxo-1H-phthalazin-2-yl)-2-hydroxymethyl-phenyl]-3-(5-methyl-pyridin-2-ylamino)-1H-pyrazole-4-carboxylic acid amide] | 1.13
15 | CC(C)(C)c1cc(F)c2c(=O)n(-c3cccc(-n4cc(C(N)=O)c(Nc5ccc(S(C)(=O)=O)cn5)n4)c3CO)ncc2c1 [Compound I-38, 1-[3-(6-tert-Butyl-8-fluoro-1-oxo-1H-phthalazin-2-yl)-2-hydroxymethyl-phenyl]-3-(5-methanesulfonyl-pyridin-2-ylamino)-1H-pyrazole-4-carboxylic acid amide] | 0.17
16 | CC(C)(C)c1cc(F)c2c(=O)n(-c3cccc(-n4cc(C(N)=O)c(Nc5ccc(C#N)cn5)n4)c3CO)ncc2c1 [Compound I-39, 1-[3-(6-tert-Butyl-8-fluoro-1-oxo-1H-phthalazin-2-yl)-2-hydroxymethyl-phenyl]-3-(5-cyano-pyridin-2-ylamino)-1H-pyrazole-4-carboxylic acid amide] | 0.18
17 | CC(C)(C)c1cc(F)c2c(=O)n(-c3cccc(-n4ccc(C(N)=O)n4)c3CO)ncc2c1 [Compound I-40, 1-[3-(6-tert-Butyl-8-fluoro-1-oxo-1H-phthalazin-2-yl)-2-hydroxymethyl-phenyl]-1H-pyrazole-3-carboxylic acid amide] | 333
18 | CC(C)(C)c1cc(F)c2c(=O)n(-c3cccc(-n4cc(C(N)=O)cn4)c3CO)ncc2c1 [Compound I-41, 1-[3-(6-tert-Butyl-8-fluoro-1-oxo-1H-phthalazin-2-yl)-2-hydroxymethyl-phenyl]-1H-pyrazole-4-carboxylic acid amide] | 268
19 | CC(C)(C)c1cc(F)c2c(=O)n(-c3cccc(-n4cc(C(N)=O)c5cncnc54)c3CO)ncc2c1 [Compound I-42, 7-[3-(6-tert-Butyl-8-fluoro-1-oxo-1H-phthalazin-2-yl)-2-hydroxymethyl-phenyl]-7H-pyrrolo[2,3-d]pyrimidine-5-carboxylic acid amide] | 7.32
20 | CN1CCN(c2ccc3c(C(N)=O)cn(-c4cccc(-n5ncc6cc(C(C)(C)C)cc(F)c6c5=O)c4CO)c3n2)CC1 [Compound I-43, 1-[3-(6-tert-Butyl-8-fluoro-1-oxo-1H-phthalazin-2-yl)-2-hydroxymethyl-phenyl]-6-(4-methyl-piperazin-1-yl)-1H-pyrrolo[2,3-b]pyridine-3-carboxylic acid amide] | 2.83
21 | CC(C)(C)c1cc(F)c2c(=O)n(-c3cccc(-n4cc(C(N)=O)c5ccc(N6CCOCC6)nc54)c3CO)ncc2c1 [Compound I-44, 1-[3-(6-tert-Butyl-8-fluoro-1-oxo-1H-phthalazin-2-yl)-2-hydroxymethyl-phenyl]-6-morpholin-4-yl-1H-pyrrolo[2,3-b]pyridine-3-carboxylic acid amide] | 10.3
22 | CCOc1ccc(-c2ccc3c(C(N)=O)cn(-c4cccc(-n5ncc6cc(C(C)(C)C)cc(F)c6c5=O)c4CO)c3n2)cn1 [Compound I-45, 1-[3-(6-tert-Butyl-8-fluoro-1-oxo-1H-phthalazin-2-yl)-2-hydroxymethyl-phenyl]-6-(6-ethoxy-pyridin-3-yl)-1H-pyrrolo[2,3-b]pyridine-3-carboxylic acid amide] | 11
23 | CC(C)(C)c1cc(F)c2c(=O)n(-c3cccc(-n4cc(C(N)=O)c5ccc(-c6ccccc6F)nc54)c3CO)ncc2c1 [Compound I-46, 1-[3-(6-tert-Butyl-8-fluoro-1-oxo-1H-phthalazin-2-yl)-2-hydroxymethyl-phenyl]-6-(2-fluoro-phenyl)-1H-pyrrolo[2,3-b]pyridine-3-carboxylic acid amide] | 14.3
24 | CC(C)(C)c1cc(F)c2c(=O)n(-c3cccc(-n4cc(C(N)=O)c5ccc(-c6ccccc6Cl)nc54)c3CO)ncc2c1 [Compound I-47, 1-[3-(6-tert-Butyl-8-fluoro-1-oxo-1H-phthalazin-2-yl)-2-hydroxymethyl-phenyl]-6-(2-chloro-phenyl)-1H-pyrrolo[2,3-b]pyridine-3-carboxylic acid amide] | 28.4
25 | CC(C)(C)c1cc(F)c2c(=O)n(-c3cccc(-n4cc(C(N)=O)c5ccc(Br)nc54)c3CO)ncc2c1 [Compound I-48, 6-Bromo-1-[3-(6-tert-butyl-8-fluoro-1-oxo-1H-phthalazin-2-yl)-2-hydroxymethyl-phenyl]-1H-pyrrolo[2,3-b]pyridine-3-carboxylic acid amide] | 7.74
26 | CC(C)(C)c1cc(F)c2c(=O)n(-c3cccc(-n4cc(C(N)=O)c5ccc(C(O)CO)nc54)c3CO)ncc2c1 (stereo not drawn) [Compound I-49, 1-[3-(6-tert-Butyl-8-fluoro-1-oxo-1H-phthalazin-2-yl)-2-hydroxymethyl-phenyl]-6-(1,2-dihydroxy-ethyl)-1H-pyrrolo[2,3-b]pyridine-3-carboxylic acid amide] | 13.9
27 | CC(C)(C)c1cc(F)c2c(=O)n(-c3cccc(-n4cc(C(N)=O)c5ccc(N6CCS(=O)(=O)CC6)nc54)c3CO)ncc2c1 [Compound I-50, 1-[3-(6-tert-Butyl-8-fluoro-1-oxo-1H-phthalazin-2-yl)-2-hydroxymethyl-phenyl]-6-(1,1-dioxo-1λ^6-thiomorpholin-4-yl)-1H-pyrrolo[2,3-b]pyridine-3-carboxylic acid amide] | 12.7
